Laboratory results published in the NIST ThermoML archive (doi:10.1021/je0601208).

Tests used:
[1] = refractive index (Na D-line) (dimensionless); xn = mol fraction of the nth substance listed; conditions: 100.5 kPa, Liquid, Standard Abbe refractometry
[2] = xn = mol fraction of the nth substance listed

CCOC(=O)c1ccccc1 [ethyl benzoate] + CCO
Conditions | refractive index, 288.15 K | refractive index, 298.15 K | refractive index, 308.15 K | refractive index, 318.15 K | surface tension liquid-gas, 288.15 K [mN/m] | surface tension liquid-gas, 298.15 K [mN/m] | surface tension liquid-gas, 308.15 K [mN/m] | surface tension liquid-gas, 318.15 K [mN/m]
[1], x1 = 0.05 | 1.38111 | 1.37682 | 1.37237 | 1.36815 | – | – | – | –
[1], x1 = 0.1 | 1.39597 | 1.39165 | 1.38717 | 1.38279 | – | – | – | –
[1], x1 = 0.15 | 1.40895 | 1.40452 | 1.39997 | 1.39551 | – | – | – | –
[1], x1 = 0.2 | 1.42035 | 1.41593 | 1.41131 | 1.40679 | – | – | – | –
[1], x1 = 0.25 | 1.43037 | 1.42598 | 1.42135 | 1.41678 | – | – | – | –
[1], x1 = 0.3 | 1.43936 | 1.43498 | 1.43033 | 1.42576 | – | – | – | –
[1], x1 = 0.35 | 1.44743 | 1.44303 | 1.4384 | 1.43378 | – | – | – | –
[1], x1 = 0.4 | 1.45479 | 1.45038 | 1.44571 | 1.44105 | – | – | – | –
[1], x1 = 0.45 | 1.46145 | 1.45702 | 1.45236 | 1.44765 | – | – | – | –
[1], x1 = 0.5 | 1.4675 | 1.46309 | 1.45841 | 1.45369 | – | – | – | –
[1], x1 = 0.55 | 1.47305 | 1.46865 | 1.46393 | 1.45918 | – | – | – | –
[1], x1 = 0.6 | 1.47816 | 1.47372 | 1.46901 | 1.46424 | – | – | – | –
[1], x1 = 0.65 | 1.48283 | 1.4784 | 1.47368 | 1.4689 | – | – | – | –
[1], x1 = 0.7 | 1.48715 | 1.48273 | 1.47801 | 1.47321 | – | – | – | –
[1], x1 = 0.75 | 1.49115 | 1.48675 | 1.48203 | 1.47724 | – | – | – | –
[1], x1 = 0.8 | 1.49488 | 1.49047 | 1.48578 | 1.48098 | – | – | – | –
[1], x1 = 0.85 | 1.4984 | 1.49401 | 1.48929 | 1.48449 | – | – | – | –
[1], x1 = 0.9 | 1.5017 | 1.49731 | 1.49257 | 1.48776 | – | – | – | –
[1], x1 = 0.95 | 1.50477 | 1.50037 | 1.49565 | 1.49086 | – | – | – | –
[1], x1 = 1 | 1.5076 | 1.50328 | 1.49863 | 1.49391 | – | – | – | –
[2], x1 = 0.05 | – | – | – | – | 23.9 | 23.1 | 22.2 | 21.3
[2], x1 = 0.1 | – | – | – | – | 24.7 | 23.9 | 23 | 22.1
[2], x1 = 0.15 | – | – | – | – | 25.5 | 24.6 | 23.7 | 22.8
[2], x1 = 0.2 | – | – | – | – | 26.2 | 25.3 | 24.4 | 23.5
[2], x1 = 0.25 | – | – | – | – | 26.9 | 26 | 25 | 24.1
[2], x1 = 0.3 | – | – | – | – | 27.5 | 26.6 | 25.6 | 24.7
[2], x1 = 0.35 | – | – | – | – | 28.1 | 27.2 | 26.1 | 25.3
[2], x1 = 0.4 | – | – | – | – | 28.7 | 27.7 | 26.7 | 25.8
[2], x1 = 0.45 | – | – | – | – | 29.2 | 28.3 | 27.2 | 26.3
[2], x1 = 0.5 | – | – | – | – | 29.7 | 28.7 | 27.7 | 26.8
[2], x1 = 0.55 | – | – | – | – | 30.2 | 29.2 | 28.1 | 27.3
[2], x1 = 0.6 | – | – | – | – | 30.7 | 29.7 | 28.6 | 27.8
[2], x1 = 0.65 | – | – | – | – | 31.2 | 30.2 | 29.1 | 28.3
[2], x1 = 0.7 | – | – | – | – | 31.8 | 30.8 | 29.6 | 28.8
[2], x1 = 0.75 | – | – | – | – | 32.3 | 31.3 | 30.1 | 29.3
[2], x1 = 0.8 | – | – | – | – | 32.9 | 31.9 | 30.6 | 29.8
[2], x1 = 0.85 | – | – | – | – | 33.6 | 32.5 | 31.2 | 30.4
[2], x1 = 0.9 | – | – | – | – | 34.3 | 33.2 | 31.9 | 31
[2], x1 = 0.95 | – | – | – | – | 35 | 33.9 | 32.6 | 31.8
[2], x1 = 1 | – | – | – | – | 35.7 | 34.6 | 33.3 | 32.5

CCOC(=O)Cc1ccccc1 [ethyl phenylacetate] + CCO
Conditions | refractive index, 288.15 K | refractive index, 298.15 K | refractive index, 308.15 K | refractive index, 318.15 K | surface tension liquid-gas, 288.15 K [mN/m] | surface tension liquid-gas, 298.15 K [mN/m] | surface tension liquid-gas, 308.15 K [mN/m] | surface tension liquid-gas, 318.15 K [mN/m]
[1], x1 = 0.05 | 1.38109 | 1.37693 | 1.37265 | 1.36852 | – | – | – | –
[1], x1 = 0.1 | 1.39604 | 1.3918 | 1.38745 | 1.38323 | – | – | – | –
[1], x1 = 0.15 | 1.4087 | 1.40441 | 1.40003 | 1.39573 | – | – | – | –
[1], x1 = 0.2 | 1.41969 | 1.41536 | 1.41093 | 1.40653 | – | – | – | –
[1], x1 = 0.25 | 1.42932 | 1.42491 | 1.42047 | 1.41597 | – | – | – | –
[1], x1 = 0.3 | 1.4379 | 1.43347 | 1.42899 | 1.42447 | – | – | – | –
[1], x1 = 0.35 | 1.44556 | 1.44111 | 1.43661 | 1.43203 | – | – | – | –
[1], x1 = 0.4 | 1.45242 | 1.44792 | 1.44342 | 1.43878 | – | – | – | –
[1], x1 = 0.45 | 1.45856 | 1.45402 | 1.44951 | 1.44484 | – | – | – | –
[1], x1 = 0.5 | 1.46406 | 1.45953 | 1.455 | 1.4503 | – | – | – | –
[1], x1 = 0.55 | 1.46909 | 1.46454 | 1.45999 | 1.45524 | – | – | – | –
[1], x1 = 0.6 | 1.47365 | 1.46908 | 1.46451 | 1.45975 | – | – | – | –
[1], x1 = 0.65 | 1.47785 | 1.47324 | 1.46869 | 1.46391 | – | – | – | –
[1], x1 = 0.7 | 1.48174 | 1.47713 | 1.47255 | 1.46775 | – | – | – | –
[1], x1 = 0.75 | 1.48536 | 1.48072 | 1.47613 | 1.47132 | – | – | – | –
[1], x1 = 0.8 | 1.48865 | 1.48403 | 1.47943 | 1.47458 | – | – | – | –
[1], x1 = 0.85 | 1.4917 | 1.48707 | 1.48248 | 1.47763 | – | – | – | –
[1], x1 = 0.9 | 1.49461 | 1.48996 | 1.48539 | 1.48053 | – | – | – | –
[1], x1 = 0.95 | 1.4973 | 1.49266 | 1.4881 | 1.48323 | – | – | – | –
[1], x1 = 1 | 1.49971 | 1.49513 | 1.49063 | 1.48583 | – | – | – | –
[2], x1 = 0.05 | – | – | – | – | 23.9 | 23.1 | 22.2 | 21.2
[2], x1 = 0.1 | – | – | – | – | 24.6 | 23.7 | 22.8 | 21.8
[2], x1 = 0.15 | – | – | – | – | 25.2 | 24.3 | 23.4 | 22.4
[2], x1 = 0.2 | – | – | – | – | 25.9 | 24.9 | 23.9 | 22.9
[2], x1 = 0.25 | – | – | – | – | 26.5 | 25.5 | 24.5 | 23.5
[2], x1 = 0.3 | – | – | – | – | 27.2 | 26.1 | 25.1 | 24.1
[2], x1 = 0.35 | – | – | – | – | 27.8 | 26.7 | 25.7 | 24.7
[2], x1 = 0.4 | – | – | – | – | 28.4 | 27.3 | 26.2 | 25.4
[2], x1 = 0.45 | – | – | – | – | 29.1 | 27.9 | 26.8 | 26
[2], x1 = 0.5 | – | – | – | – | 29.7 | 28.5 | 27.4 | 26.6
[2], x1 = 0.55 | – | – | – | – | 30.3 | 29.1 | 28 | 27.2
[2], x1 = 0.6 | – | – | – | – | 31 | 29.7 | 28.6 | 27.8
[2], x1 = 0.65 | – | – | – | – | 31.6 | 30.3 | 29.2 | 28.4
[2], x1 = 0.7 | – | – | – | – | 32.2 | 30.9 | 29.8 | 29
[2], x1 = 0.75 | – | – | – | – | 32.8 | 31.6 | 30.4 | 29.5
[2], x1 = 0.8 | – | – | – | – | 33.5 | 32.1 | 31 | 30.1
[2], x1 = 0.85 | – | – | – | – | 34.1 | 32.8 | 31.6 | 30.7
[2], x1 = 0.9 | – | – | – | – | 34.7 | 33.4 | 32.2 | 31.4
[2], x1 = 0.95 | – | – | – | – | 35.3 | 33.9 | 32.8 | 32
[2], x1 = 1 | – | – | – | – | 35.9 | 34.6 | 33.5 | 32.8
